From PubChem BioAssay (NCI) come the findings set out here.

Structures are written as SMILES.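 Results reflect a 48-hour exposure of cells in 96-well plates to compound at five concentrations. TGI: total growth inhibition.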

Common to all, as to assay: NCI-60 cell line screen, 48 h
Assay [1] deals with KM12 colon.
Assay [2] deals with HS 578T breast.
Assay [3] has as its system NCI-H226 lung.
In assay [4] the test system is 786-0 renal.
The subject of assay [5] is EKVX NSCLC.
Assay [6] concerns IGROV1 ovarian.
In assay [7] the test system is COLO 205 colon.
Assay [8] relates to HCT-116 colon.
Assay [9] concerns MALME-3M melanoma.
Assay [10] relates to SNB-75 CNS.
Assay [11] relates to SF-295 CNS.
The test system of assay [12] is OVCAR-5 ovarian.
Assay [13] relates to MDA-N.
Assay [14] relates to SF-268 CNS.
For assay [15], the system named is RXF 393 renal.
For assay [16], the system named is HOP-62 NSCLC.
Assay [17] concerns HT29 colon.
In assay [18] the test system is SNB-19 CNS.
Assay [19] relates to HCC-2998 colon.

Take `CC(C)C(=O)CP(=O)(O)O`: the TGI was above 100 µM in assay [1]; above 100 µM in [2]; above 100 µM in assay [3]; above 100 µM in [4]; 46.1 µM in [5]; above 100 µM in [6]. The TGI in [7], in assay [8], in [9], in assay [10], in assay [11] and in [12] was above 100 µM in each case. Moreover, the TGI in assay [13], in assay [14], in assay [15], in [16], in [17] and in assay [18] was above 100 µM throughout.

As to `CC(C)(C)OC(=O)CC(NC(=O)OC(C)(C)C)C(=O)Oc1ccc([N+](=O)[O-])cc1` (configuration not stated), the TGI in assay [1], in assay [2], in assay [3], in assay [4], in assay [5] and in assay [6] was above 100 µM each time. The TGI in [7], in [8], in assay [9], in assay [10], in [11] and in [12] was above 100 µM in each case. Further, the TGI in assay [13], in [14], in [15], in [16], in assay [17] and in assay [18] was above 100 µM each time.

For `O=C(O)CCCN=C(C(=NCCCC(=O)O)c1ccccc1)c1ccccc1`, the TGI in [1], in assay [2], in assay [19], in [3], in assay [4] and in assay [5] was above 100 µM in each case. The TGI in [6], in assay [7], in assay [8], in [10], in assay [11] and in assay [12] was above 100 µM each time. Also, the TGI in assay [13], in assay [14], in [15], in assay [16] and in assay [18] was above 100 µM in each case.

In the case of `O[C@H]1[C@@H]2OC[C@@H](O)[C@H](OCc3ccccc3)[C@@](COCc3ccccc3)(O2)[C@@H]1OCc1ccccc1`, the TGI in assay [1] is 35.6 µM; in [2], 40.7 µM; in assay [4], 45.4 µM; in assay [5] it was 30.3 µM; in assay [6] it was 27.5 µM; in assay [7] it was 32.8 µM. The TGI stood at 47.5 µM in assay [8]; 28.6 µM in assay [9]; 18.7 µM in assay [10]; 26.1 µM in assay [11]; 30 µM in [12]; 29.4 µM in assay [13]. The TGI was 42.8 µM in assay [14]; 39.8 µM in assay [15]; 34.4 µM in [16]; 28.7 µM in [17]; 30 µM in assay [18].

Take `CC(=O)Oc1ccc2c3c1[C@@H]1O[C@@H]1c1cccc(c1-3)[C@@H]1O[C@H]21`: the TGI in assay [1] was 4.47 µM; in assay [2], 5.98 µM; in [3], 84.2 µM; in assay [4] it was 3.14 µM; in assay [7], 4.36 µM; in assay [8], 2.87 µM. Further, the TGI was 3.07 µM in [10]; 3.83 µM in assay [11]; 3.42 µM in assay [12]; 3.32 µM in [13]; 5.04 µM in [14]; 2.73 µM in assay [15]. The TGI came out at 3.96 µM in [16] and 23.1 µM in assay [18].

In the case of `O=C(CC(C(=O)c1cccs1)c1ccccc1)c1ccccc1O` (configuration not stated), the TGI in assay [1] was above 100 µM; in assay [2] it was above 22.9 µM; in assay [19], above 100 µM; in [3], above 100 µM; in assay [4], above 38.4 µM; in assay [5] it was above 100 µM. The TGI in assay [6] was above 57.3 µM; in assay [7], above 100 µM; in assay [8], above 100 µM; in assay [10], above 55.7 µM; in [11] it was above 27.9 µM; in assay [12], above 100 µM. In addition, the TGI was above 100 µM in assay [13]; above 35.1 µM in [14]; 27.9 µM in [15]; above 48.1 µM in assay [16]; above 100 µM in assay [17]; above 100 µM in assay [18].

For `CC1CC/C(=C\c2ccc(F)cc2)C2=C1C(c1ccc(F)cc1)n1c(s/c(=C\c3ccc(Cl)cc3)c1=O)=N2` (configuration not stated), the TGI in assay [1], in assay [2], in assay [4], in assay [5], in [6] and in assay [8] was above 100 µM throughout. Moreover, the TGI in [12], in assay [13], in assay [14], in assay [15], in assay [16] and in assay [17] was above 100 µM each time. In [18], the TGI is above 100 µM.

In the case of `Nc1ccc2c(c1)S(=O)(=O)c1cc(N)ccc1-2`, the TGI in assay [1], in assay [2], in [19], in assay [3], in assay [4] and in [5] was above 100 µM throughout. Also, the TGI in [6], in [7], in assay [8], in assay [11], in [12] and in [13] was above 100 µM each time. For the same molecule, the TGI in [14], in assay [15], in [16], in assay [17] and in assay [18] was above 100 µM each time.
